From the NIST ThermoML archive (doi:10.1021/je5009679)

Conditions: Liquid; for viscosity: Concentric cylinders viscometry

CCCC[n+]1ccn(C)c1.O=S(=O)([N-]S(=O)(=O)C(F)(F)F)C(F)(F)F
101.33 kPa
Conditions | viscosity [mPa·s]
293.15 K | 63.41
303.15 K | 41.26
313.15 K | 28.46
323.15 K | 20.58
333.15 K | 15.47
343.15 K | 12
353.15 K | 9.562
363.15 K | 7.788
373.15 K | 6.469

Conditions | mass density [kg/m3]
293.15 K, 101.33 kPa, Vibrating tube method | 1440.9
303.15 K, 101.33 kPa, Vibrating tube method | 1431.6
311.8 K, 10000 kPa, Bellows volumetry | 1430.7
311.8 K, 20000 kPa, Bellows volumetry | 1437.5
311.8 K, 30000 kPa, Bellows volumetry | 1444.6
311.8 K, 40000 kPa, Bellows volumetry | 1451.2
311.8 K, 50000 kPa, Bellows volumetry | 1457.5
311.8 K, 60000 kPa, Bellows volumetry | 1463.6
311.8 K, 70000 kPa, Bellows volumetry | 1469.5
311.8 K, 80000 kPa, Bellows volumetry | 1475.2
311.8 K, 90000 kPa, Bellows volumetry | 1480.5
311.8 K, 100000 kPa, Bellows volumetry | 1485.7
311.8 K, 110000 kPa, Bellows volumetry | 1490.9
311.8 K, 120000 kPa, Bellows volumetry | 1496
311.8 K, 130000 kPa, Bellows volumetry | 1500.9
311.8 K, 140000 kPa, Bellows volumetry | 1505.6
311.8 K, 150000 kPa, Bellows volumetry | 1510.2
311.8 K, 160000 kPa, Bellows volumetry | 1514.8
311.8 K, 170000 kPa, Bellows volumetry | 1519.3
311.8 K, 180000 kPa, Bellows volumetry | 1523.5
311.8 K, 190000 kPa, Bellows volumetry | 1527.7
311.8 K, 200000 kPa, Bellows volumetry | 1531.8
313.15 K, 101.33 kPa, Vibrating tube method | 1422.1
323.15 K, 101.33 kPa, Vibrating tube method | 1412.6
331.9 K, 10000 kPa, Bellows volumetry | 1412.5
331.9 K, 20000 kPa, Bellows volumetry | 1420.1
331.9 K, 30000 kPa, Bellows volumetry | 1427.4
331.9 K, 40000 kPa, Bellows volumetry | 1434.5
331.9 K, 50000 kPa, Bellows volumetry | 1441.1
331.9 K, 60000 kPa, Bellows volumetry | 1447.6
331.9 K, 70000 kPa, Bellows volumetry | 1453.6
331.9 K, 80000 kPa, Bellows volumetry | 1459.5
331.9 K, 90000 kPa, Bellows volumetry | 1464.9
331.9 K, 100000 kPa, Bellows volumetry | 1470.5
331.9 K, 110000 kPa, Bellows volumetry | 1476
331.9 K, 120000 kPa, Bellows volumetry | 1481.1
331.9 K, 130000 kPa, Bellows volumetry | 1486.2
331.9 K, 140000 kPa, Bellows volumetry | 1491.2
331.9 K, 150000 kPa, Bellows volumetry | 1495.9
331.9 K, 160000 kPa, Bellows volumetry | 1500.5
331.9 K, 170000 kPa, Bellows volumetry | 1505.2
331.9 K, 180000 kPa, Bellows volumetry | 1509.6
331.9 K, 190000 kPa, Bellows volumetry | 1513.9
331.9 K, 200000 kPa, Bellows volumetry | 1518.3
333.15 K, 101.33 kPa, Vibrating tube method | 1403.4
343.15 K, 101.33 kPa, Vibrating tube method | 1394
352 K, 10000 kPa, Bellows volumetry | 1394
352 K, 20000 kPa, Bellows volumetry | 1402.4
352 K, 30000 kPa, Bellows volumetry | 1410
352 K, 40000 kPa, Bellows volumetry | 1417.4
352 K, 50000 kPa, Bellows volumetry | 1424.3
352 K, 60000 kPa, Bellows volumetry | 1431.2
352 K, 70000 kPa, Bellows volumetry | 1437.5
352 K, 80000 kPa, Bellows volumetry | 1443.8
352 K, 90000 kPa, Bellows volumetry | 1449.5
352 K, 100000 kPa, Bellows volumetry | 1455.3
352 K, 110000 kPa, Bellows volumetry | 1460.8
352 K, 120000 kPa, Bellows volumetry | 1466.3
352 K, 130000 kPa, Bellows volumetry | 1471.5
352 K, 140000 kPa, Bellows volumetry | 1476.5
352 K, 150000 kPa, Bellows volumetry | 1481.4
352 K, 160000 kPa, Bellows volumetry | 1486.3
352 K, 170000 kPa, Bellows volumetry | 1491
352 K, 180000 kPa, Bellows volumetry | 1495.8
352 K, 190000 kPa, Bellows volumetry | 1500.2
352 K, 200000 kPa, Bellows volumetry | 1504.7
353.15 K, 101.33 kPa, Vibrating tube method | 1384.8
363.15 K, 101.33 kPa, Vibrating tube method | 1375.6
372.2 K, 10000 kPa, Bellows volumetry | 1376.1
372.2 K, 20000 kPa, Bellows volumetry | 1384.9
372.2 K, 30000 kPa, Bellows volumetry | 1393.3
372.2 K, 40000 kPa, Bellows volumetry | 1401.1
372.2 K, 50000 kPa, Bellows volumetry | 1408.4
372.2 K, 60000 kPa, Bellows volumetry | 1415.5
372.2 K, 70000 kPa, Bellows volumetry | 1422.1
372.2 K, 80000 kPa, Bellows volumetry | 1428.4
372.2 K, 90000 kPa, Bellows volumetry | 1434.4
372.2 K, 100000 kPa, Bellows volumetry | 1440.3
372.2 K, 110000 kPa, Bellows volumetry | 1446.2
372.2 K, 120000 kPa, Bellows volumetry | 1452
372.2 K, 130000 kPa, Bellows volumetry | 1457.4
372.2 K, 140000 kPa, Bellows volumetry | 1462.6
372.2 K, 150000 kPa, Bellows volumetry | 1467.8
372.2 K, 160000 kPa, Bellows volumetry | 1472.5
372.2 K, 170000 kPa, Bellows volumetry | 1477.5
372.2 K, 180000 kPa, Bellows volumetry | 1482.1
372.2 K, 190000 kPa, Bellows volumetry | 1487
372.2 K, 200000 kPa, Bellows volumetry | 1491.4
373.15 K, 101.33 kPa, Vibrating tube method | 1366.7
392.4 K, 10000 kPa, Bellows volumetry | 1358.5
392.4 K, 20000 kPa, Bellows volumetry | 1367.8
392.4 K, 30000 kPa, Bellows volumetry | 1376.7
392.4 K, 40000 kPa, Bellows volumetry | 1385
392.4 K, 50000 kPa, Bellows volumetry | 1392.8
392.4 K, 60000 kPa, Bellows volumetry | 1400.2
392.4 K, 70000 kPa, Bellows volumetry | 1407.2
392.4 K, 80000 kPa, Bellows volumetry | 1414
392.4 K, 90000 kPa, Bellows volumetry | 1420.7
392.4 K, 100000 kPa, Bellows volumetry | 1426.6
392.4 K, 110000 kPa, Bellows volumetry | 1432.6
392.4 K, 120000 kPa, Bellows volumetry | 1438.2
392.4 K, 130000 kPa, Bellows volumetry | 1443.8
392.4 K, 140000 kPa, Bellows volumetry | 1449.2
392.4 K, 150000 kPa, Bellows volumetry | 1454.4
392.4 K, 160000 kPa, Bellows volumetry | 1459.3
392.4 K, 170000 kPa, Bellows volumetry | 1464.5
392.4 K, 180000 kPa, Bellows volumetry | 1469.2
392.4 K, 190000 kPa, Bellows volumetry | 1474.1
392.4 K, 200000 kPa, Bellows volumetry | 1478.8
412.1 K, 10000 kPa, Bellows volumetry | 1341.1
412.1 K, 20000 kPa, Bellows volumetry | 1351
412.1 K, 30000 kPa, Bellows volumetry | 1360.4
412.1 K, 40000 kPa, Bellows volumetry | 1369.2
412.1 K, 50000 kPa, Bellows volumetry | 1377.5
412.1 K, 60000 kPa, Bellows volumetry | 1385.1
412.1 K, 70000 kPa, Bellows volumetry | 1392.6
412.1 K, 80000 kPa, Bellows volumetry | 1399.6
412.1 K, 90000 kPa, Bellows volumetry | 1406.1
412.1 K, 100000 kPa, Bellows volumetry | 1412.5
412.1 K, 110000 kPa, Bellows volumetry | 1418.8
412.1 K, 120000 kPa, Bellows volumetry | 1424.8
412.1 K, 130000 kPa, Bellows volumetry | 1430.5
412.1 K, 140000 kPa, Bellows volumetry | 1436.2
412.1 K, 150000 kPa, Bellows volumetry | 1441.4
412.1 K, 160000 kPa, Bellows volumetry | 1446.8
412.1 K, 170000 kPa, Bellows volumetry | 1451.9
412.1 K, 180000 kPa, Bellows volumetry | 1456.9
412.1 K, 190000 kPa, Bellows volumetry | 1461.6
412.1 K, 200000 kPa, Bellows volumetry | 1466.6
